In publication PMC11526092 (2024):

Tested on: h1_(TTAA)2 (DNA, hairpin) CGTTAATTAACGCCCCCGTTAATTAACG
Assay: SPR, steady state, two-site fit
Conditions: Na+ 100 mM (NaCl), 1 mM EDTA; 10 mM MES pH 6.25, 0.005% P20, 25 °C; site 1 of 2; error about ±10%

K1: 680 nM
Structure (SMILES): N=C(N)c1ccc(OCCCCCOc2ccc(C(=N)N)cc2)cc1
